Measured values: the supplement of paper PMC10307832

How the values were obtained:
Assay in all cases: relative viability (nuclei count vs DMSO), 5 days (fraction); higher = more cells survive
[1] = tested on: LCLC-103H
In short: (§1)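 A single step with final 0.05% Triton X-100, 1% formaldehyde and 1 ug/ml Hoechst fixed the cells and stained nuclei 5 days after treatment. Lung cancer cell lines in 1536-well plates had been treated by pin tool the day after seeding with one drug alone or a fixed anchor-drug dose plus five library-drug doses (not always all listed) in √10 steps, and nuclei were counted on 4× images. Relative viability is the ratio of nuclei in treated wells to nuclei in vehicle wells, taken as the median of duplicate plates.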

[2] = tested on: EBC-1
In short: as §1

[3] = tested on: EKVX
In short: as §1

[4] = tested on: NCI-H1703
In short: as §1

[5] = tested on: A549
In short: as §1

[6] = tested on: HCC-15
In short: as §1

[7] = tested on: NCI-H1299
In short: as §1

[8] = tested on: IA-LM
In short: as §1

[9] = tested on: NCI-H1755
In short: as §1

[10] = tested on: NCI-H1395
In short: as §1

[11] = tested on: HCC-44
In short: as §1

[12] = tested on: UMC-11
In short: as §1

[13] = tested on: Calu-6
In short: as §1

Cc1sc2c(c1C)C(c1ccc(Cl)cc1)=N[C@@H](CC(=O)OC(C)(C)C)c1nnc(C)n1-2 [JQ1] + CS(=O)(=O)N1CCN(Cc2cc3nc(-c4cccc5[nH]ncc45)nc(N4CCOCC4)c3s2)CC1 [Pictilisib] (partner 1 µM)
relative viability ([1]; first compound 0.04 µM): 0.571 | relative viability ([1]; first compound 0.1265 µM): 0.522 | relative viability ([1]; first compound 0.4 µM): 0.537 | relative viability ([1]; first compound 1.265 µM): 0.4 | relative viability ([1]; first compound 4 µM): 0.352 | relative viability ([2]; first compound 0.04 µM): 0.31 | relative viability ([2]; first compound 0.1265 µM): 0.245 | relative viability ([2]; first compound 0.4 µM): 0.15 | relative viability ([2]; first compound 1.265 µM): 0.11 | relative viability ([2]; first compound 4 µM): 0.156 | relative viability ([3]; first compound 0.04 µM): 0.442 | relative viability ([3]; first compound 0.1265 µM): 0.464 | relative viability ([3]; first compound 0.4 µM): 0.459 | relative viability ([3]; first compound 1.265 µM): 0.359 | relative viability ([3]; first compound 4 µM): 0.335 | relative viability ([4]; first compound 0.04 µM): 0.234 | relative viability ([4]; first compound 0.1265 µM): 0.212 | relative viability ([4]; first compound 0.4 µM): 0.238 | relative viability ([4]; first compound 1.265 µM): 0.21 | relative viability ([4]; first compound 4 µM): 0.216 | relative viability ([5]; first compound 0.04 µM): 0.511 | relative viability ([5]; first compound 0.1265 µM): 0.421 | relative viability ([5]; first compound 0.4 µM): 0.35 | relative viability ([5]; first compound 1.265 µM): 0.253 | relative viability ([5]; first compound 4 µM): 0.185 | relative viability ([6]; first compound 0.04 µM): 0.67 | relative viability ([6]; first compound 0.4 µM): 0.663 | relative viability ([6]; first compound 1.265 µM): 0.366 | relative viability ([6]; first compound 4 µM): 0.343 | relative viability ([7]; first compound 0.04 µM): 0.691 | relative viability ([7]; first compound 0.1265 µM): 0.482 | relative viability ([7]; first compound 0.4 µM): 0.219 | relative viability ([7]; first compound 4 µM): 0.104 | relative viability ([8]; first compound 0.04 µM): 0.278 | relative viability ([8]; first compound 0.1265 µM): 0.103 | relative viability ([8]; first compound 0.4 µM): 0.0998 | relative viability ([8]; first compound 1.265 µM): 0.0879 | relative viability ([8]; first compound 4 µM): 0.0786 | relative viability ([9]; first compound 0.04 µM): 0.404 | relative viability ([9]; first compound 0.1265 µM): 0.419 | relative viability ([9]; first compound 0.4 µM): 0.421 | relative viability ([9]; first compound 1.265 µM): 0.208 | relative viability ([9]; first compound 4 µM): 0.185 | relative viability ([10]; first compound 0.04 µM): 0.652 | relative viability ([10]; first compound 0.1265 µM): 0.582 | relative viability ([10]; first compound 0.4 µM): 0.62 | relative viability ([10]; first compound 1.265 µM): 0.403 | relative viability ([10]; first compound 4 µM): 0.407 | relative viability ([11]; first compound 0.04 µM): 0.623 | relative viability ([11]; first compound 0.1265 µM): 0.498 | relative viability ([11]; first compound 0.4 µM): 0.532 | relative viability ([11]; first compound 1.265 µM): 0.294 | relative viability ([11]; first compound 4 µM): 0.213 | relative viability ([12]; first compound 0.04 µM): 0.724 | relative viability ([12]; first compound 0.1265 µM): 0.664 | relative viability ([12]; first compound 0.4 µM): 0.338 | relative viability ([12]; first compound 1.265 µM): 0.209 | relative viability ([12]; first compound 4 µM): 0.192 | relative viability ([13]; first compound 0.04 µM): 0.972 | relative viability ([13]; first compound 0.1265 µM): 0.826 | relative viability ([13]; first compound 0.4 µM): 0.897 | relative viability ([13]; first compound 1.265 µM): 0.468 | relative viability ([13]; first compound 4 µM): 0.372

Cc1sc2c(c1C)C(c1ccc(Cl)cc1)=N[C@@H](CC(=O)OC(C)(C)C)c1nnc(C)n1-2 [JQ1] + C[C@]1(O)C[C@@H](c2nc(-c3ccc4ccc(-c5ccccc5)nc4c3)c3c(N)nccn32)C1 [Linsitinib] (partner 1 µM)
relative viability ([1]; first compound 0.04 µM): 1.01 | relative viability ([1]; first compound 0.1265 µM): 0.751 | relative viability ([1]; first compound 0.4 µM): 0.805 | relative viability ([1]; first compound 1.265 µM): 0.608 | relative viability ([1]; first compound 4 µM): 0.456 | relative viability ([2]; first compound 0.04 µM): 0.8 | relative viability ([2]; first compound 0.1265 µM): 0.523 | relative viability ([2]; first compound 0.4 µM): 0.332 | relative viability ([2]; first compound 1.265 µM): 0.112 | relative viability ([2]; first compound 4 µM): 0.112 | relative viability ([3]; first compound 0.04 µM): 0.935 | relative viability ([3]; first compound 0.1265 µM): 0.813 | relative viability ([3]; first compound 0.4 µM): 1.01 | relative viability ([3]; first compound 1.265 µM): 0.72 | relative viability ([3]; first compound 4 µM): 0.461 | relative viability ([4]; first compound 0.04 µM): 0.95 | relative viability ([4]; first compound 0.4 µM): 0.404 | relative viability ([4]; first compound 1.265 µM): 0.33 | relative viability ([4]; first compound 4 µM): 0.396 | relative viability ([5]; first compound 0.04 µM): 0.613 | relative viability ([5]; first compound 0.1265 µM): 0.534 | relative viability ([5]; first compound 0.4 µM): 0.561 | relative viability ([5]; first compound 1.265 µM): 0.314 | relative viability ([5]; first compound 4 µM): 0.226 | relative viability ([6]; first compound 0.04 µM): 0.732 | relative viability ([6]; first compound 0.4 µM): 0.769 | relative viability ([6]; first compound 1.265 µM): 0.542 | relative viability ([6]; first compound 4 µM): 0.476 | relative viability ([7]; first compound 0.04 µM): 0.97 | relative viability ([7]; first compound 0.1265 µM): 0.781 | relative viability ([7]; first compound 0.4 µM): 0.883 | relative viability ([7]; first compound 1.265 µM): 0.36 | relative viability ([7]; first compound 4 µM): 0.238 | relative viability ([8]; first compound 0.04 µM): 0.406 | relative viability ([8]; first compound 0.1265 µM): 0.098 | relative viability ([8]; first compound 0.4 µM): 0.153 | relative viability ([8]; first compound 1.265 µM): 0.106 | relative viability ([8]; first compound 4 µM): 0.0793 | relative viability ([9]; first compound 0.04 µM): 0.985 | relative viability ([9]; first compound 0.1265 µM): 0.987 | relative viability ([9]; first compound 0.4 µM): 1.01 | relative viability ([9]; first compound 1.265 µM): 0.763 | relative viability ([9]; first compound 4 µM): 0.709 | relative viability ([10]; first compound 0.04 µM): 0.983 | relative viability ([10]; first compound 0.1265 µM): 0.797 | relative viability ([10]; first compound 0.4 µM): 0.788 | relative viability ([10]; first compound 1.265 µM): 0.562 | relative viability ([10]; first compound 4 µM): 0.486 | relative viability ([11]; first compound 0.04 µM): 0.704 | relative viability ([11]; first compound 0.1265 µM): 0.448 | relative viability ([11]; first compound 0.4 µM): 0.32 | relative viability ([11]; first compound 1.265 µM): 0.31 | relative viability ([11]; first compound 4 µM): 0.283 | relative viability ([12]; first compound 0.04 µM): 0.866 | relative viability ([12]; first compound 0.1265 µM): 0.793 | relative viability ([12]; first compound 0.4 µM): 0.321 | relative viability ([12]; first compound 1.265 µM): 0.237 | relative viability ([12]; first compound 4 µM): 0.203 | relative viability ([13]; first compound 0.04 µM): 0.931 | relative viability ([13]; first compound 0.1265 µM): 0.793 | relative viability ([13]; first compound 0.4 µM): 0.905 | relative viability ([13]; first compound 1.265 µM): 0.639 | relative viability ([13]; first compound 4 µM): 0.313
